Experimental data taken from the supplement of paper PMC10307832.

Tests used:
Experiment in all cases: relative viability (nuclei count vs DMSO), 5 days (fraction); higher = more cells survive
MK-8033 + Trametinib = compound: Cn1cc(-c2cnc3ccc4ccc(CS(=O)(=O)NCc5ccccn5)cc4c(=O)c3c2)cn1 [MK-8033] + CC(=O)Nc1cccc(-n2c(=O)n(C3CC3)c(=O)c3c(Nc4ccc(I)cc4F)n(C)c(=O)c(C)c32)c1 [Trametinib] (partner 0.02 µM)
In short: (§1)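 Lung cancer cell lines were seeded in 1536-well plates and dosed by pin tool the next day, with either a single drug or a fixed anchor-drug dose combined with five library-drug doses (not always all listed) spaced in √10 steps. Five days later, one step fixed the cells and stained their nuclei (final 0.05% Triton X-100, 1% formaldehyde, 1 ug/ml Hoechst), and nuclei were counted on 4× images. Relative viability is the nuclei count in treated wells divided by the count in vehicle wells, and each value is the median of duplicate plates.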

RU-SKI 43 + Olaparib = compound: CC[C@@H](C)CNCC(=O)N1CCC2=C([C@@H]1COC3=CC=CC(=C3)C)C=CS2 [RU-SKI 43] + O=C(c1cc(Cc2n[nH]c(=O)c3ccccc23)ccc1F)N1CCN(C(=O)C2CC2)CC1 [Olaparib] (partner 8 µM)
In short: as §1

Irinotecan + Pictilisib = compound: CCc1c2c(nc3ccc(OC(=O)N4CCC(N5CCCCC5)CC4)cc13)-c1cc3c(c(=O)n1C2)COC(=O)[C@]3(O)CC [Irinotecan] + CS(=O)(=O)N1CCN(Cc2cc3nc(-c4cccc5[nH]ncc45)nc(N4CCOCC4)c3s2)CC1 [Pictilisib] (partner 1 µM)
In short: as §1

Irinotecan + Pemetrexed = compound: CCc1c2c(nc3ccc(OC(=O)N4CCC(N5CCCCC5)CC4)cc13)-c1cc3c(c(=O)n1C2)COC(=O)[C@]3(O)CC [Irinotecan] + Nc1nc2[nH]cc(CCc3ccc(C(=O)N[C@@H](CCC(=O)O)C(=O)O)cc3)c2c(=O)[nH]1 [Pemetrexed] (partner 0.2 µM)
In short: as §1

Cell Line | relative viability (MK-8033 + Trametinib; first compound 0.02 µM) | relative viability (MK-8033 + Trametinib; first compound 0.06325 µM) | relative viability (MK-8033 + Trametinib; first compound 0.2 µM) | relative viability (MK-8033 + Trametinib; first compound 0.6325 µM) | relative viability (MK-8033 + Trametinib; first compound 2 µM) | relative viability (RU-SKI 43 + Olaparib; first compound 0.1 µM) | relative viability (RU-SKI 43 + Olaparib; first compound 0.3162 µM) | relative viability (RU-SKI 43 + Olaparib; first compound 1 µM) | relative viability (RU-SKI 43 + Olaparib; first compound 3.162 µM) | relative viability (RU-SKI 43 + Olaparib; first compound 10 µM) | relative viability (Irinotecan + Pictilisib; first compound 0.6325 µM) | relative viability (Irinotecan + Pictilisib; first compound 2 µM) | relative viability (Irinotecan + Pictilisib; first compound 6.325 µM) | relative viability (Irinotecan + Pictilisib; first compound 20 µM) | relative viability (Irinotecan + Pemetrexed; first compound 0.6325 µM) | relative viability (Irinotecan + Pemetrexed; first compound 2 µM) | relative viability (Irinotecan + Pemetrexed; first compound 6.325 µM) | relative viability (Irinotecan + Pemetrexed; first compound 20 µM)
NCI-H460 | 0.116 | 0.0888 | 0.0918 | 0.155 | 0.0855 | 0.389 | 0.702 | 0.47 | 0.49 | 0.334 | 0.328 | 0.314 | 0.0912 | 0.0812 | 0.0679 | 0.093 | 0.0699 | 0.0601
NCI-H2228 | 0.278 | 0.403 | 0.435 | 0.341 | 0.582 | 0.6 | 0.858 | 0.642 | 0.638 | 0.654 | 0.408 | 0.562 | 0.399 | 0.395 | 0.363 | 0.36 | 0.336 | 0.442
LCLC-103H | 0.637 | 0.705 | 0.673 | 0.672 | 0.696 | 0.748 | 0.865 | 0.882 | 0.829 | 0.816 | 0.406 | 0.51 | 0.331 | 0.408 | 0.477 | 0.471 | 0.508 | 0.516
SK-LU-1 | 0.484 | 0.482 | 0.437 | 0.445 | 0.468 | 0.449 | 0.397 | 0.531 | 0.46 | 0.44 | 0.444 | 0.447 | 0.322 | 0.247 | 0.521 | 0.455 | 0.334 | 0.276
201T | 0.778 | 0.76 | 0.709 | 0.782 | 0.73 | 0.835 | 0.888 | 0.843 | 0.858 | 0.836 | – | 0.738 | 0.36 | 0.346 | 0.274 | 0.308 | 0.271 | 0.283
NCI-H441 | 0.376 | 0.343 | 0.391 | 0.487 | 0.437 | 0.709 | 0.576 | 0.627 | 0.736 | 0.542 | 0.434 | 0.314 | 0.216 | 0.32 | 0.261 | 0.178 | 0.222 | 0.241
ChaGo-K-1 | 0.877 | 0.717 | 0.802 | 0.886 | 0.729 | 0.391 | 0.446 | 0.413 | 0.403 | 0.383 | – | 0.645 | 0.523 | 0.161 | 0.238 | 0.232 | 0.236 | 0.239
SW 1573 | 0.471 | 0.504 | 0.573 | 0.582 | 0.568 | 0.442 | 0.479 | 0.51 | 0.435 | 0.41 | 0.435 | 0.37 | 0.173 | 0.155 | – | 0.553 | 0.176 | 0.0829
HOP-62 | 0.315 | 0.381 | 0.344 | 0.371 | 0.35 | 0.322 | 0.235 | 0.223 | 0.511 | 0.436 | 0.239 | 0.261 | 0.13 | 0.269 | 0.0967 | 0.337 | 0.17 | 0.166
